Measured values: PMC12152147, “DDB1 engagement defines the selectivity of S656 analogs for cyclin K degradation over CDK inhibition” (EMBO Reports, 2025)
Several values for one entry are separate records, joined by “and”; a condition that tells them apart may be missing. Equal values may be shown once. Read-outs that look alike come from different tables or passages of the source.

Assays:
[1] = system: OCI-AML5 cells expressing shRNAs targeting CDK1, 2, 4, 7, 9, cyclin K; test: Dose response in OCI-AML5 expressing shRNAs targeting CDK1, 2, 4, 7, 9, cyclin K or control; type: cell-based, H. sapiens
CDK9/CyclinT = biological target: T1, CDK9/CyclinT (Homo sapiens, UniProt P50750); test: CDK9/CyclinT in vitro kinase activity, single concentration 1 μM; type: biochemical; details: single concentration 1 μM
T1 construct: purchased BPS Bioscience 79628
T1 sequence (P50750 whole entry): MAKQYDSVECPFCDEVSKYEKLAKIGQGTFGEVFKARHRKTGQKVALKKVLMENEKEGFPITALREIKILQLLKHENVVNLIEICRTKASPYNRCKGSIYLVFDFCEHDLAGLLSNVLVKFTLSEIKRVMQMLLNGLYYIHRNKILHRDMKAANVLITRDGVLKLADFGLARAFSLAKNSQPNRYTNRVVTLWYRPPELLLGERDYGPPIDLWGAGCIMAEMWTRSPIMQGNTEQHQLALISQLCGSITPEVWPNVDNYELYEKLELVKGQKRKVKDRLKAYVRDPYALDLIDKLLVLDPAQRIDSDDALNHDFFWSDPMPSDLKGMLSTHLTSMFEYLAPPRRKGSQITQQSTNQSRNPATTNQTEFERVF
T1 sequence (O60563 whole entry partner): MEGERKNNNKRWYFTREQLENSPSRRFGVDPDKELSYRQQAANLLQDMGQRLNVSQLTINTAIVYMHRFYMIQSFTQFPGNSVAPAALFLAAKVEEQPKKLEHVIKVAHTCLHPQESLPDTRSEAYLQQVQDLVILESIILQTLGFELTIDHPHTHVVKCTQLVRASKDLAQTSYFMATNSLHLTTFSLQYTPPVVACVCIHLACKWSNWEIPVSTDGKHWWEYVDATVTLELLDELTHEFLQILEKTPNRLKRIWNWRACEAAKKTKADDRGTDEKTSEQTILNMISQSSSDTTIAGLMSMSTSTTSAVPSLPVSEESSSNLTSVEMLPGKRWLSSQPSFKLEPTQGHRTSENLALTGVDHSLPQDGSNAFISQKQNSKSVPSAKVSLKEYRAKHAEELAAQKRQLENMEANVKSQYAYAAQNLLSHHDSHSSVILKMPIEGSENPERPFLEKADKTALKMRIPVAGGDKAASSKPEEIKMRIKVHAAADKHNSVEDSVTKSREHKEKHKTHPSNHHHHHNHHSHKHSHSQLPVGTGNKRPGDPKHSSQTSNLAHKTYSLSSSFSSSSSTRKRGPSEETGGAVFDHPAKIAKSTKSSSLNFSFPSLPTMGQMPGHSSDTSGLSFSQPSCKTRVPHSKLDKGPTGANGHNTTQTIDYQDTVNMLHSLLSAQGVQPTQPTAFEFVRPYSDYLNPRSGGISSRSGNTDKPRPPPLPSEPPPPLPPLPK
Protocol: (§1) Kinase activity was assessed using the kinase assay kits from BPS Bioscience for CDK1, CDK9 and CDK12 with Kinase Glo MAX in duplicates. Compounds were tested at a single concentration of 1 μM for CDK1 and CDK9 activity, and in a dilution ranging from 0.64 nM to 50 μM for CDK12 activity. Chemiluminescence was read using the Neo Synergy BioTek plate reader.

cyclin KeGFP = test: Cyclin KeGFP reporter system (eGFP/mCherry MFI by flow cytometry);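 as to % degradation cyclin K-eGFP: 10 μM compound for 3 h relative to DMSO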; type: cell-based, H. sapiens
In short: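 OCI-AML5 clone G7 carrying lentiviral cyclin KeGFP/mCherry reporter. eGFP and mCherry geometric MFI measured by flow cytometry; eGFP/mCherry ratio normalized to DMSO-treated cells.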

CDK1 = biological target: T2, CDK1 (Homo sapiens, UniProt P06493); test: CDK1 in vitro kinase activity, single concentration 1 μM; type: biochemical; details: single concentration 1 μM
T2 construct: purchased BPS Bioscience 79597
T2 sequence (P06493 whole entry): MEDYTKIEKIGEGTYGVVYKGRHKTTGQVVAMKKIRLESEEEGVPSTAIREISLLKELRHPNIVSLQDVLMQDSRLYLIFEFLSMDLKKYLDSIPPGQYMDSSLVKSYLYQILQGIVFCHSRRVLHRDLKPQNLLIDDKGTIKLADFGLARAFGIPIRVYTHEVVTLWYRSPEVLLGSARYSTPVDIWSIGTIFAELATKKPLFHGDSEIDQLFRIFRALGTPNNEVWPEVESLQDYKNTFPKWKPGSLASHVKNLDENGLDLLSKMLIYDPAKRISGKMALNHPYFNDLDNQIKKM
T2 sequence (P14635 whole entry partner): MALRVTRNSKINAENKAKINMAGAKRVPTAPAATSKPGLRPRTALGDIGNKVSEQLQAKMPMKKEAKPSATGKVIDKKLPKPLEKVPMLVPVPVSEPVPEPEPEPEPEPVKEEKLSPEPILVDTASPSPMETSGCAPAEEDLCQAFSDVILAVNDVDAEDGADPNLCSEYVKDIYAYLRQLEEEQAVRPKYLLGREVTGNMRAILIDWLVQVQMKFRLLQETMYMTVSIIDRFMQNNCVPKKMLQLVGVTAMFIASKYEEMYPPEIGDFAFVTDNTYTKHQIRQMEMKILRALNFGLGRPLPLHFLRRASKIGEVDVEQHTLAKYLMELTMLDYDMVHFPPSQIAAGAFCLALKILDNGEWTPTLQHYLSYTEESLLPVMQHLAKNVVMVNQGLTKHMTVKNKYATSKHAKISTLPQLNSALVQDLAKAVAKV
Protocol: as §1

[2] = system: OCI-AML5 cells expressing shRNA targeting CUL4A or CUL4B; test: Dose response in OCI-AML5 expressing shRNAs targeting CUL4A, CUL4B or control; type: cell-based, H. sapiens; details: ratio of IC50 in shCUL4A vs shCTRL OCI-AML5 cells
OCI-AML5 cells = test: Dose-response proliferative assay in OCI-AML5 (4 days, CellTiterGlo); type: cell-based, H. sapiens; details: Homo sapiens, OCI-AML-5, OCI-AML5 cells; read-out: IC50 in AML5
In short: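 OCI-AML5 cells in αMEM, 10% heat-inactivated FBS plus 10 ng/mL GM-CSF, 300 cells/well, exposed to 8-point 1:4 serial dilutions (10 μM down to 0.5 nM). Viability read after 4 days in culture at 37 °C, 5% CO2.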

primary AML specimens = test: Dose-response assays in primary AML specimens (6 days, CellTiterGlo); type: cell-based, human; details: Homo sapiens, 144 h, 6 days, read-out: IC50
Protocol: Freshly thawed primary AML specimens were used for chemical screens. Cryopreserved cells were thawed at 37 °C in IMDM containing 20% FBS and DNase I (100 μg/mL). Cells were resuspended in IMDM supplemented with 15% BIT (BSA, insulin, transferrin; StemCell Technologies), 100 ng/mL SCF, 50 ng/mL FLT3L, 20 ng/mL IL3, 20 ng/mL G-CSF, 10^−4 mol/L b-mercaptoethanol, gentamicin (50 μg/mL), ciprofloxacin (10 μg/mL), SR1 (500 nmol/L) and UM729 (500 nmol/L). Cells were plated in 384-well white plates, 5000 cells per well in 50 μL. Compounds were dissolved in DMSO, diluted in media immediately before use and added to seeded cells at the unique concentration of 1 μM. Control wells received DMSO (0.1%) only. Cell viability was evaluated after 6 days in culture using the CellTiterGlo assay according to the manufacturer’s instruction. Percentage of inhibition for dose response curves was calculated as 100 – (100 × (mean luminescence [compound]/mean luminescence [DMSO])). Dose response curves were generated using nonlinear regression in GraphPad Prism version.
Dose-response assays in primary AML specimens were performed as in chemical screen (see above) with the exception that compounds were tested in serial dilution (8 dilutions, 1:4, 10 μM down to 0.5 nM). Dose-response assays in OCI-AML5 cell line were conducted similarly with the following modifications: 300 cells per well were seeded in 50 μL of cell line media and cell viability was evaluated after 4 days in culture.

Cn1cc(-n2cnc3c(NCc4nc5cc(Cl)c(Cl)cc5[nH]4)nc(N4CCOCC4)nc32)cn1 [SR4835]
IC50 ([1]; Homo sapiens, OCI-AML-5, 96 h, read-out: IC50, sh CDK1, OCI-AML5, 4 days): 25.2 nM
IC50 ([1]; Homo sapiens, OCI-AML-5, 96 h, read-out: IC50, sh CDK2, OCI-AML5, 4 days): 22.8 nM
IC50 ([1]; Homo sapiens, OCI-AML-5, 96 h, read-out: IC50, sh CDK4, OCI-AML5, 4 days): 17.4 nM
IC50 ([1]; Homo sapiens, OCI-AML-5, 96 h, read-out: IC50, sh CDK7, OCI-AML5, 4 days): 20.2 nM
IC50 ([1]; Homo sapiens, OCI-AML-5, 96 h, read-out: IC50, sh CDK9, OCI-AML5, 4 days): 21.4 nM
IC50 ([1]; Homo sapiens, OCI-AML-5, 96 h, read-out: IC50, sh Cyclin K, OCI-AML5, 4 days): 5.7 nM
IC50 ([1]; Homo sapiens, OCI-AML-5, 96 h, read-out: IC50, sh ctrl, OCI-AML5, 4 days): 21.2 nM
Class ([1]; class from shRNA IC50 profile and cyclin K-eGFP degradation): 1
IC50 ([1]; read-out: IC50, sh CDK1, OCI-AML5, 4 days): 22.7 nM and 35.9 nM
IC50 ([1]; read-out: IC50, sh CDK2, OCI-AML5, 4 days): 21.1 nM and 33.4 nM
IC50 ([1]; read-out: IC50, sh CDK4, OCI-AML5, 4 days): 20.7 nM and 17.8 nM
IC50 ([1]; read-out: IC50, sh CDK7, OCI-AML5, 4 days): 23.7 nM and 34.5 nM
IC50 ([1]; read-out: IC50, sh CDK9, OCI-AML5, 4 days): 17.3 nM and 16.7 nM
IC50 ([1]; read-out: IC50, sh Cyclin K, OCI-AML5, 4 days): 8.31 nM and 5.07 nM
IC50 ([1]; read-out: IC50, sh ctrl, OCI-AML5, 4 days): 17.9 nM and 15.9 nM
inhibition at 1 µM (CDK9/CyclinT): 0%
MFI of cyclin KeGFP over mCherry (cyclin KeGFP; OCI-AML5 G7 clone, 3 h, 10 μM, normalized to DMSO (=100)): 16.0 and 15.3 and 15.4
% degradation cyclin K-eGFP (cyclin KeGFP; cyclin K-eGFP reporter): 84%
inhibition at 1 µM (CDK1): 0%
Ratio shCUL4A/shCTRL [2]: 4.77
IC50 (OCI-AML5 cells): 18 nM
IC50 (primary AML specimens; primary AML specimen 03H109): 23.9 nM
IC50 (primary AML specimens; primary AML specimen 04H055): 37.9 nM
IC50 (primary AML specimens; primary AML specimen 04H096): 37.8 nM
IC50 (primary AML specimens; primary AML specimen 04H138): 46.2 nM
IC50 (primary AML specimens; primary AML specimen 05H113): 37.3 nM
IC50 (primary AML specimens; primary AML specimen 05H149): 45.5 nM
IC50 (primary AML specimens; primary AML specimen 05H193): 42.9 nM
IC50 (primary AML specimens; primary AML specimen 06H088): 40.2 nM
IC50 (primary AML specimens; primary AML specimen 06H117): 34.3 nM
IC50 (primary AML specimens; primary AML specimen 06H151): 28.5 nM
IC50 (primary AML specimens; primary AML specimen 07H003): 44.1 nM
IC50 (primary AML specimens; primary AML specimen 07H131): 99 nM
IC50 (primary AML specimens; primary AML specimen 07H144): 31.9 nM
IC50 (primary AML specimens; primary AML specimen 07H155): 55.9 nM
IC50 (primary AML specimens; primary AML specimen 08H018): 41.3 nM
IC50 (primary AML specimens; primary AML specimen 08H021): 29.8 nM
IC50 (primary AML specimens; primary AML specimen 08H056): 70.5 nM
IC50 (primary AML specimens; primary AML specimen 08H063): 125 nM
IC50 (primary AML specimens; primary AML specimen 08H085): 38.9 nM
IC50 (primary AML specimens; primary AML specimen 08H108): 41.7 nM
IC50 (primary AML specimens; primary AML specimen 08H118): 33.5 nM
IC50 (primary AML specimens; primary AML specimen 09H016): 35.3 nM
IC50 (primary AML specimens; primary AML specimen 09H070): 124 nM
IC50 (primary AML specimens; primary AML specimen 10H014): 38 nM
IC50 (primary AML specimens; primary AML specimen 10H046): 38.8 nM
IC50 (primary AML specimens; primary AML specimen 10H107): 37.1 nM
IC50 (primary AML specimens; primary AML specimen 10H127): 48 nM
IC50 (primary AML specimens; primary AML specimen 10H161): 42.2 nM
IC50 (primary AML specimens; primary AML specimen 10H174): 38.2 nM
IC50 (primary AML specimens; primary AML specimen 11H008): 45.7 nM
IC50 (primary AML specimens; primary AML specimen 11H019): 41 nM
IC50 (primary AML specimens; primary AML specimen 11H170): 141 nM
IC50 (primary AML specimens; primary AML specimen 11H217): 48.8 nM
IC50 (primary AML specimens; primary AML specimen 11H232): 39.8 nM
IC50 (primary AML specimens; primary AML specimen 12H033): 61.4 nM
IC50 (primary AML specimens; primary AML specimen 12H055): 44.7 nM
IC50 (primary AML specimens; primary AML specimen 12H148): 44.4 nM
IC50 (primary AML specimens; primary AML specimen 13H053): 55.9 nM
IC50 (primary AML specimens; primary AML specimen 15H045): 28.4 nM
IC50 (primary AML specimens; primary AML specimen 17H065): 59.1 nM
